What was measured:
[1] = test system: MIA PaCa-2 (KRAS G12C) cells; test: Cellular pERK HTRF assay; type: cell-based; settings: Homo sapiens; MIA PaCa-2 cells, 4 hours, phospho-ERK 1/2 HTRF; read-out: G12C_pERK (KRAS_G12C pERK assay IC50)
Method: MIA PaCa-2 (KRAS G12C; ATCC® CRL-1420), A427 (KRAS G12D; ATCC® HTB53), HPAF-II (KRAS G12D; ATCC® CRL-1997) and NCI-H838 (KRAS WT; ATCC® CRL-5844) cells are purchased from ATCC and maintained in RPMI 1640 media supplemented with 10% FBS (Gibco/Life Technologies). The cells are plated at 5000 cells per well (8 uL) into Greiner 384-well low volume, flat-bottom, tissue culture treated white plates and incubated overnight at 37° C. 5% CO2. The next morning, test compound stock solutions are diluted in media at 3× the final concentration, and 4 uL are added to the cells. The plate is mixed by gentle rotation for 30 seconds (250 rpm) at room temperature. The cells are incubated with the KRAS G12C and G12D compounds for 4 hours or 2 hours respectively at 37° C., 5% CO2.
4 uL of 4× lysis buffer with blocking reagent (1:25) (Cisbio) are added to each well and plates are rotated gently (300 rpm) for 30 minutes at room temperature. 4 uL per well of Cisbio anti Phospho-ERK 1/2 d2 is mixed with anti Phospho-ERK 1/2 Cryptate (1:1) are added to each well, mixed by rotation and incubated overnight in the dark at room temperature. Plates are read on the Pherastar plate reader at 665 nm and 620 nm wavelengths. IC50 determination is performed by fitting the curve of inhibitor percent inhibition versus the log of the inhibitor concentration using the GraphPad Prism 7 software.

KRAS G12C = KRAS G12C (Homo sapiens, UniProt P01116, G12C); test: GDP-GTP exchange assay (fluorescence based guanine nucleotide exchange, bodipy-GDP for GppNHp, SOS1); type: biochemical; settings: bodipy-loaded KRAS G12C, 2 hours pre-incubation with inhibitor, read-out: G12C_exchange (KRAS_G12C exchange assay IC50)
Method: The inhibitor potency of the exemplified compounds was determined in a fluorescence based guanine nucleotide exchange assay, which measures the exchange of bodipy-GDP (fluorescently labeled GDP) for GppNHp (Non-hydrolyzable GTP analog) to generate the active state of KRAS in the presence of SOS1 (guanine nucleotide exchange factor). Inhibitors were serially diluted in DMSO and a volume of 0.1 μL was transferred to the wells of a black low volume 384-well plate. 5 μL/well volume of bodipy-loaded KRAS G12C diluted to 5 nM in assay buffer (25 mM Hepes pH 7.5, 50 mM NaCl, 10 mM MgCl2 and 0.01% Brij-35) was added to the plate and pre-incubated with inhibitor for 2 hours at ambient temperature. Appropriate controls (enzyme with no inhibitor or with a G12C inhibitor (AMG-510)) were included on the plate. The exchange was initiated by the addition of a 5 μL/well volume containing 1 mM GppNHp and 300 nM SOS1 in assay buffer. The 10 μL/well reaction concentration of the bodipy-loaded KRAS G12C, GppNHp, and SOS1 were 5-25 nM, 500 uM, and 150 nM, respectively. The reaction plates were incubated at ambient temperature for 2 hours, a time estimated for complete GDP-GTP exchange in the absence of inhibitor. For the KRAS G12D and G12V mutants, similar guanine nucleotide exchange assays were used with 2.5 nM as final concentration for the bodipy loaded KRAS proteins and with 4 hours and 3 hours incubation after adding GppNHp-SOS1 mixture for G12D and G12V, respectively. A cyclic peptide described to selectively bind G12D mutant (Sakamoto et al., BBRC 484.3 (2017), 605-611) or internal compounds with confirmed binding were used as positive controls in the assay plates. Fluorescence intensities were measured on a PheraStar plate reader instrument (BMG Labtech) with excitation at 485 nm and emission at 520 nm.
Either GraphPad prism or XLfit was used to analyze the data. The IC50 values were derived by fitting the data to a four parameter logistic equation producing a sigmoidal dose-response curve with a variable Hill coefficient. Prism equation: Y=Bottom+(Top−Bottom)/(1+10^((Log IC50−X)*Hill slope)); XLfit equation: Y=(A+((B−A)/(1+((X/C)^D)))) where X is the logarithm of inhibitor concentration and Y is the response.

KRAS G12C, sequence (P01116 1-188 isoform P01116-2 G12C): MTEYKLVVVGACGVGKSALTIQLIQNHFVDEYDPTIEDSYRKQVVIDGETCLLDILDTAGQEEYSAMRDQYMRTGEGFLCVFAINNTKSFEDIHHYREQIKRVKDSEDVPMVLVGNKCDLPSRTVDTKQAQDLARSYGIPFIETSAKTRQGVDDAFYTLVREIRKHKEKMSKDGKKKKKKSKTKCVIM

SMILES	IC50 [1] [nM]	IC50 (KRAS G12C) [nM]
C=CC(=O)N1CC(F)(Cn2c(=O)c(=O)n(-c3c(C)ccnc3C(C)C)c3nc(-c4c(O)cccc4F)c(Cl)cc32)C1 [Example 17, 1-((1-acryloyl-3-fluoroazetidin-3-yl)methyl)-7-chloro-6-(2-fluoro-6-hydroxyphenyl)-4-(2-isopropyl-4-methylpyridin-3-yl)-1,4-dihydropyrido[2,3-b]pyrazine-2,3-dione]	≤ 100	≤ 100
C=CC(=O)N1CC(Cn2c(=O)c(=O)n(-c3c(C)ccnc3C(C)C)c3nc(-c4c(O)ccc(F)c4F)c(Cl)cc32)(OC)C1 [Example 39, 1-((1-acryloyl-3-methoxyazetidin-3-yl)methyl)-7-chloro-6-(2,3-difluoro-6-hydroxyphenyl)-4-(2-isopropyl-4-methylpyridin-3-yl)-1,4-dihydropyrido[2,3-b]pyrazine-2,3-dione]	100 to 1000	100 to 1000
C=CC(=O)N1CC(O)(Cn2c(=O)c(=O)n(-c3c(C)ccnc3C(C)C)c3nc(-c4c(O)cccc4F)c(Cl)cc32)C1 [Example 42, 1-((1-acryloyl-3-hydroxyazetidin-3-yl)methyl)-7-chloro-6-(2-fluoro-6-hydroxyphenyl)-4-(2-isopropyl-4-methylpyridin-3-yl)-1,4-dihydropyrido[2,3-b]pyrazine-2,3-dione]	100 to 1000	≤ 100
[2H]C([2H])(n1c(=O)c(=O)n(-c2c(C)ccnc2C(C)C)c2nc(-c3cccc(Cl)c3Cl)c(Cl)cc21)C1(F)CN(C(=O)C=C)C1 [Example 51, 1-((1-acryloyl-3-fluoroazetidin-3-yl)methyl-d2)-7-chloro-6-(2,3-dichlorophenyl)-4-(2-isopropyl-4-methylpyridin-3-yl)-1,4-dihydropyrido[2,3-b]pyrazine-2,3-dione]	≤ 100	≤ 100
C=CC(=O)N1CC(F)(Cn2c(=O)c(=O)n(-c3c(C(C)C)cccc3C(C)C)c3nc(-c4cccc5ccccc45)c(Cl)cc32)C1 [Example 11, 1-((1-acryloyl-3-fluoroazetidin-3-yl)methyl)-7-chloro-6-(1-naphthyl)-4-(2,6-diisopropylphenyl)-1,4-dihydropyrido[2,3-b]pyrazine-2,3-dione]	100 to 1000	≤ 100
C=CC(=O)N1CC(Cn2c(=O)c(=O)n(-c3c(C(C)C)cccc3C(C)C)c3nc(-c4cccc(F)c4F)c(Cl)cc32)C1 [Example 5, 1-((1-acryloylazetidin-3-yl)methyl)-7-chloro-4-(2,6-diisopropylphenyl)-6-(2,3-difluorophenyl)-1,4-dihydropyrido[2,3-b]pyrazine-2,3-dione]	100 to 1000	≤ 100
C=CC(=O)N1CC(F)(Cn2c(=O)c(=O)n(-c3c(C(C)C)cccc3C(C)C)c3nc(-c4cc(O)cc5ccccc45)c(Cl)cc32)C1 [Example 14, 1-((1-acryloyl-3-fluoroazetidin-3-yl)methyl)-7-chloro-4-(2,6-diisopropylphenyl)-6-(3-hydroxynaphthalen-1-yl)-1,4-dihydropyrido[2,3-b]pyrazine-2,3-dione]	≤ 100	≤ 100
C=CC(=O)N1CC(F)(Cn2c(=O)c(=O)n(-c3c(C(C)C)cccc3C(C)C)c3nc(-c4ccccc4F)c(Cl)cc32)C1 [Example 10, 1-((1-acryloyl-3-fluoro-azetidin-3-yl)methyl)-7-chloro-4-(2,6-diisopropylphenyl)-6-(2-fluorophenyl)-1,4-dihydropyrido[2,3-b]pyrazine-2,3-dione]	100 to 1000	≤ 100

Now from value to compound:

IC50 [1] [nM]	IC50 (KRAS G12C) [nM]	SMILES
100 to 1000	100 to 1000	C=CC(=O)N1CC(F)(Cn2c(=O)c(=O)n(-c3c(C)ccnc3C(C)C)c3nc(-c4cccc5c(C)n[nH]c45)c(Cl)cc32)C1 [Example 27, 1-((1-acryloyl-3-fluoroazetidin-3-yl)methyl)-7-chloro-4-(2-isopropyl-4-methylpyridin-3-yl)-6-(3-methyl-1H-indazol-7-yl)-1,4-dihydropyrido[2,3-b]pyrazine-2,3-dione]
≤ 100	≤ 100	C=CC(=O)N1CC(F)(Cn2c(=O)c(=O)n(-c3c(C)ccnc3C(C)C)c3nc(-c4c(O)cccc4C(F)(F)F)c(Cl)cc32)C1 [Example 25, 1-((1-acryloyl-3-fluoroazetidin-3-yl)methyl)-7-chloro-6-(2-hydroxy-6-(trifluoromethyl)phenyl)-4-(2-isopropyl-4-methylpyridin-3-yl)-1,4-dihydropyrido[2,3-b]pyrazine-2,3-dione]
≤ 100	≤ 100	C=CC(=O)N1CC(F)(Cn2c(=O)c(=O)n(-c3c(C)ccnc3C(C)C)c3nc(-c4cccc(Cl)c4Cl)c(Cl)cc32)C1 [Example 35, 1-((1-acryloyl-3-fluoroazetidin-3-yl)methyl)-7-chloro-6-(2,3-dichlorophenyl)-4-(2-isopropyl-4-methylpyridin-3-yl)-1,4-dihydropyrido[2,3-b]pyrazine-2,3-dione]
≤ 100	≤ 100	C=CC(=O)N1CC(F)(Cn2c(=O)c(=O)n(-c3c(C)ccnc3C(C)C)c3nc(-c4c(N)cccc4F)c(Cl)cc32)C1 [Example 19, 1-((1-acryloyl-3-fluoroazetidin-3-yl)methyl)-6-(2-amino-6-fluorophenyl)-7-chloro-4-(2-isopropyl-4-methylpyridin-3-yl)-1,4-dihydropyrido[2,3-b]pyrazine-2,3-dione]
100 to 1000	100 to 1000	C=CC(=O)N1CC(Cn2c(=O)c(=O)n(-c3c(C)ccnc3C(C)C)c3nc(-c4c(O)cccc4F)c(Cl)cc32)(OC)C1 [Example 38, 1-((1-acryloyl-3-methoxyazetidin-3-yl)methyl)-7-chloro-6-(2-fluoro-6-hydroxyphenyl)-4-(2-isopropyl-4-methylpyridin-3-yl)-1,4-dihydropyrido[2,3-b]pyrazine-2,3-dione]
≤ 100	≤ 100	C=CC(=O)N1CC(F)(Cn2c(=O)c(=O)n(-c3c(C)ccnc3C(C)C)c3nc(-c4ccccc4F)c(Cl)cc32)C1 [Example 18, 1-((1-acryloyl-3-fluoroazetidin-3-yl)methyl)-7-chloro-6-(2-fluorophenyl)-4-(2-isopropyl-4-methylpyridin-3-yl)-1,4-dihydropyrido[2,3-b]pyrazine-2,3-dione]
≤ 100	≤ 100	C=CC(=O)N1CC(F)(Cn2c(=O)c(=O)n(-c3c(C(C)C)cccc3C(C)C)c3nc(-c4c(N)cccc4F)c(Cl)cc32)C1 [Example 15, 1-((1-acryloyl-3-fluoroazetidin-3-yl)methyl)-6-(2-amino-6-fluorophenyl)-7-chloro-4-(2,6-diisopropylphenyl)-1,4-dihydropyrido[2,3-b]pyrazine-2,3-dione]
≤ 100	≤ 100	C=CC(=O)N1CC(F)(Cn2c(=O)c(=O)n(-c3c(C)ccnc3C(C)C)c3nc(-c4c(F)ccc(C)c4O)c(Cl)cc32)C1 [Example 21, 1-((1-acryloyl-3-fluoroazetidin-3-yl)methyl)-7-chloro-6-(6-fluoro-2-hydroxy-3-methylphenyl)-4-(2-isopropyl-4-methylpyridin-3-yl)-1,4-dihydropyrido[2,3-b]pyrazine-2,3-dione]
≤ 100	≤ 100	C=CC(=O)N1CC(F)(Cn2c(=O)c(=O)n(-c3c(C)ccnc3C(C)C)c3nc(-c4c(O)cc(C)cc4F)c(Cl)cc32)C1 [Example 20, 1-((1-acryloyl-3-fluoroazetidin-3-yl)methyl)-7-chloro-6-(2-fluoro-6-hydroxy-4-methylphenyl)-4-(2-isopropyl-4-methylpyridin-3-yl)-1,4-dihydropyrido[2,3-b]pyrazine-2,3-dione]

Source: patent publication US11767320B2, “Bicyclic dione compounds as inhibitors of KRAS” (INCYTE CORPORATION, priority 2020, dated 2023)
